Source: US20130178413A1, “HCV NS3 PROTEASE INHIBITORS” (priority 2010, published 2013)
Like-named read-outs stand apart in the source and are kept apart here.

Experiments:
[1] = target: NS3/4A protease gt 1b (Hepatitis C virus genotype 1b, UniProt P26663); test: HCV NS3 protease time-resolved fluorescence (TRF) assay, NS3/4A inhibitory activity (Ki), gt 1b; type: biochemical; details: genotype 1b NS3/4A; read-out: Enzyme Activity gt 1b Ki
Description: (§1) The HCV NS3 protease inhibitory activity of the present compounds may be tested using assays known in the art. One such assay is HCV NS3 protease time-resolved fluorescence (TRF) assay as described below and in International Patent Application Publication WO2006/102087. Other examples of such assays are described in e.g., International Patent Application Publication WO2005/046712. HCV NS3 protease inhibitors, such as those described herein have a Ki less than 50 μM, such as less than 10 μM, and less than 100 nM. Ki is determined by an NS3 protease assay. The assay is performed in a final volume of 100 μl in assay buffer containing 50 mM HEPES, pH 7.5, 150 mM NaCl, 15% glycerol, 0.15% TRITON X-100, 10 mM DTT, and 0.1% PEG 8000. NS3 protease is pre-incubated with various concentrations of inhibitors in DMSO for 30 minutes. The reaction is initiated by adding the TRF peptide substrate (final concentration 100 nM). NS3 mediated hydrolysis of the substrate is quenched after 1 hour at room temperature with 100 μl of 500 mM MES, pH 5.5. Product fluorescence is detected using either a VICTOR V2 or FUSION fluorophotometer (Perkin Elmer Life and Analytical Sciences) with excitation at 340 nm and emission at 615 nm with a 400 μs delay. Testing concentrations of different enzyme forms are selected to result in a signal to background ratio (S/B) of 10-30. IC50 values are derived using a standard four-parameter fit to the data. Ki values are derived from IC50 values using the following formula,
(§2) IC50=Ki(1+[S]/KM), Eqn (1),
(§3) where [S] is the concentration of substrate peptide in the reaction and KM is the Michaelis constant. See P. Gallinari et al., 38 BIOCHEM. 5620-32 (1999); P. Gallinari et al., 72 J. VIROL. 6758-69 (1998); M. Taliani et al., 240 ANAL. BIOCHEM. 60-67 (1996).
(§4) One such assay is HCV NS3 protease time-resolved fluorescence (TRF) assay as described below and in Mao et al., Anal Biochem. 373:1-8, 2008 and International Patent Application Publication WO 2006/102087. A NS3 protease assay can be performed, for example, in a final volume of 100 μl assay buffer containing 50 mM HEPES, pH 7.5, 150 mM NaCl, 15% glycerol, 0.15% TRITON X-100, 10 mM DTT, and 0.1% PEG 8000. NS3 and NS4A protease is pre-incubated with various concentrations of inhibitors in DMSO for 30 minutes. The reaction is initiated by adding the TRF peptide substrate (final concentration 100 nM). NS3 mediated hydrolysis of the substrate is quenched after 1 hour at room temperature with 100 μl of 500 mM MES, pH 5.5. Product fluorescence is detected using either a VICTOR V2 or FUSION fluorophotometer (Perkin Elmer Life and Analytical Sciences) with excitation at 340 nm and emission at 615 nm with a 400 μs delay. Testing concentrations of different enzyme forms are selected to result in a signal to background ratio (S/B) of 10-30. IC50 values are derived using a standard four-parameter fit to the data. Ki values are derived from IC50 values using the following formula,
as §3, with “(1996); Mao et al., Analytical Biochemistry 373: 1-8, 2008. Measuring Compound Inhibitory Potency (Replicon EC50 (nM))” for “(1996).”

[2] = target: NS3/4A protease gt 3a (Hepatitis C virus genotype 3a, UniProt Q81258); test: HCV NS3 protease time-resolved fluorescence (TRF) assay, NS3/4A inhibitory activity (Ki), gt 3a; type: biochemical; details: genotype 3a NS3/4A; read-out: Enzyme Activity gt 3a Ki
Description: as §1, §2, §3, §4
as §3, with “(1996); Mao et al., Analytical Biochemistry 373: 1-8, 2008. Measuring Compound Inhibitory Potency (Replicon EC50 (nM))” for “(1996).”

[3] = test system: gt 1b Replicon; test: HCV replicon assay, compound inhibitory potency (Replicon EC50); type: cell-based; details: Hepatitis C virus, GT1B
Description: Measurement of inhibition by compounds was performed using the HCV replicon system. Several different replicons encoding different HCV genotypes or mutations were used. In addition, potency measurements were made using different formats of the replicon assay, including different ways of measurements and different plating formats. See Jan M. Vrolijk et al., A replicons-based bioassay for the measurement of interferons in patients with chronic hepatitis C, 110 J. VIROLOGICAL METHODS 201 (2003); Steven S. Carroll et al., Inhibition of Hepatitis C Virus RNA Replication by 2′-Modified Nucleoside Analogs, 278(14) J. BIOLOGICAL CHEMISTRY 11979 (2003). However, the underlying principles are common to all of these determinations, and are outlined below.
Stable neomycin phosphotransferase encoding replicon-harboring cell lines were used, so all cell lines were maintained under G418 selection prior to the assay. In some cases the cell lines encoded a luciferase:Neor fusion and could be assayed either directly by determination of RNA copy number, or indirectly through measurement of the luciferase activity.
To initiate an assay, replicon cells were plated in the presence of a dilution series of test compound in the absence of G418. Typically, the assays were performed in a 96-well plate format for manual operation, or a 384 well plate in an automated assay. Replicon cells and compound were incubated for 24-48 hours, depending on the assay. At the end of the assay, cells are washed free of media and compound and then lysed. For direct quantitation, RNA levels were measured by ^32P-probe hybridization and protection, or in a TAQMAN based assay and normalized to cellular cyclophilin A RNA levels. In some cases, luciferase activity was measured using a conventional luciferase assay. In all cases EC50 determinations were calculated as a percent of a DMSO control by fitting the data to a four parameter fit function.

[4] = target: NS3/4A protease gt 1b A156V (Hepatitis C virus genotype 1b, UniProt P26663, A1182V); test: HCV NS3 protease time-resolved fluorescence (TRF) assay, NS3/4A inhibitory activity (Ki), gt 1b A156V mutant; type: biochemical, hepatitis C virus (HCV)
Description: as §1, §2, §3, §4
as §3, with “(1996); Mao et al., Analytical Biochemistry 373: 1-8, 2008. Measuring Compound Inhibitory Potency (Replicon EC50 (nM))” for “(1996).”

| Structure (SMILES) | Ki [1] [nM] | Ki [2] [nM] | EC50 ([3]; 10% Fetal Bovine Serum, read-out: gt 1b Replicon EC50 10% FBS) [nM] | EC50 ([3]; 50% Normal Human Serum, read-out: gt 1b Replicon EC50 50% NHS) [nM] | Ki [4] [nM] |
| --- | --- | --- | --- | --- | --- |
| C=C[C@@H]1C[C@]1(NC(=O)[C@@H]1C[C@@H]2CN1C(=O)[C@H](C(C)(C)C)NC(=O)O[C@@]1(C)C[C@@H]1CCCCCc1nc3ccccc3nc1O2)C(=O)NS(=O)(=O)C1CC1 [Example I-9, (1aS,5S,8S,10R,22aS)-5-tert-butyl-N-{(1R,2S)-1-[(cyclopropylsulfonyl)carbamoyl]-2-ethenylcyclopropyl}-1a-methyl-3,6-dioxo-1,1a,3,4,5,6,9,10,18,19, 20,21,22,22a-tetra decahydro-8H-7,10-methanocyclopropa[18, 19][1,10,3,6]dioxadiaza cyclononadecino[11,12-b]quinoxaline-8-carboxamide] | 0.06 | 12.5 |  |  |  |
| CC[C@@H]1C[C@]1(NC(=O)[C@@H]1C[C@@H]2CN1C(=O)[C@H](C(C)(C)C)NC(=O)O[C@]1(C)C[C@H]1CCCCCc1nc3ccc(OC)cc3cc1O2)C(=O)NS(=O)(=O)C1CC1 [Example I-11] | 0.03 | 0.5 | 4 | 7 |  |
| C=C[C@@H]1C[C@]1(NC(=O)[C@@H]1C[C@@H]2CN1C(=O)[C@H](C(C)(C)C)NC(=O)O[C@@]1(C)C[C@@H]1CC/C=C/c1cccc3c1CN(C3)C(=O)O2)C(=O)NS(=O)(=O)C1CC1 [Example I-14, (1aS,5S,8S,10R,19E,22aS)-5-tert-butyl-N-{(1R,2S)-1-[(cyclopropylsulfonyl)carbamoyl]-2-ethenylcyclopropyl}-1a-methyl-3,6,12-trioxo-1,1a,3,4,5,6,9, 10,14,21,22,22a-dodecahydro-8H-7,10:13,15-dimethano cyclopropa[n][4,13,2,8, 11]benzodioxatriaza cyclohenicosine-8(12H)-carboxamide] | 0.08 | 112 |  |  | 6.3 |
| C=C[C@@H]1C[C@]1(NC(=O)[C@@H]1C[C@@H]2CN1C(=O)[C@H](C(C)(C)C)NC(=O)O[C@]1(C)C[C@H]1CC/C=C/c1cccc3c1CN(C3)C(=O)O2)C(=O)NS(=O)(=O)C1CC1 [Example I-15, (1aR,5S,8S,10R,19E,22aR)-5-tert-butyl-N-{(1R,2S)-1-[(cyclopropylsulfonyl)carbamoyl]-2-ethenylcyclopropyl}-1a-methyl-3,6,12-trioxo-1,1a,3,4,5,6,9, 10,14,21,22,22a-dodecahydro-8H-7,10: 13,15-dimethanocyclo propa[n][4,13,2,8,11] benzodioxatriazacyclo henicosine-8(12H)-carboxamide] | 0.09 | 93.5 |  |  | 8.9 |
| C=C[C@@H]1C[C@]1(NC(=O)[C@@H]1C[C@@H]2CN1C(=O)[C@H](C1CCCC1)NC(=O)O[C@]1(C)CCC[C@H]1CC/C=C/Cc1c(nc3ccccc3c1OCc1ccccc1)O2)C(=O)NS(=O)(=O)C1CC1 [Example I-17, (3aR,7S,10S,12R,21E, 24aS)-19-(benzyloxy)-7-cyclopentyl-N-{(1R,2S)-1-[(cyclopropylsulfonyl)carbamoyl]-2-ethenylcyclopropyl}-3a-methyl-5,8-dioxo-1,2,3,3a,5,6,7,8,11,12, 20,23,24,24a-tetradeca hydro-10H-9,12-methanocyclopenta[18, 19][1,10,3,6]dioxadiaza cyclononadecino[11,12-b]quinoline-10-carboxamide] | 0.07 | 27.9 |  |  | 9.6 |
| C=C[C@@H]1C[C@]1(NC(=O)[C@@H]1C[C@@H]2CN1C(=O)[C@H](C(C)(C)C)NC(=O)O[C@]1(C)C[C@H]1CCCCc1cccc3c1CN(C3)C(=O)O2)C(=O)NS(=O)(=O)C1CC1 [Example I-20, (1aR,5S,8S,10R,22aR)-5-tert-butyl-N-{(1R,2S)-1-[(cyclopropylsulfonyl)carbamoyl]-2-ethenylcyclopropyl}-1a-methyl-3,6,12-trioxo-1,1a,3,4,5,6,9, 10,14,19,20,21,22,22a-tetradecahydro-8H-7,10:13,15-dimethano cyclopropa[n][4,13,2,8, 11]benzodioxatriaza cyclohenicosine-8(12H)-carboxamide] | 0.02 | 58.3 |  |  | 27.2 |
| C=C[C@@H]1C[C@]1(NC(=O)[C@@H]1C[C@@H]2CN1C(=O)[C@H](C(C)(C)C)NC(=O)O[C@@]1(C)C[C@@H]1CCCCc1cccc3c1CN(C3)C(=O)O2)C(=O)NS(=O)(=O)C1CC1 [Example I-21, (1aS,5S,8S,10R,22aS)-5-tert-butyl-N-{(1R,2S)-1-[(cyclopropylsulfonyl)carbamoyl]-2-ethenylcyclopropyl}-1a-methyl-3,6,12-trioxo-1,1a,3,4,5,6,9,10,14,19,20,21,22,22a-tetradecahydro-8H-7,10:13,15-dimethano cyclopropa[n][4,13,2,8, 11]benzodioxatriaza cyclohenicosine-8(12H)-carboxamide] | 1.4 | 300 |  |  | 8.1 |
| C=C[C@@H]1C[C@]1(NC(=O)[C@@H]1C[C@@H]2CN1C(=O)[C@H](C1CCCC1)NC(=O)O[C@@]1(C)C[C@@H]1CC/C=C/Cn1c(nc3cc(C)ccc3c1=O)O2)C(=O)NS(=O)(=O)C1CC1 [Example I-22, (1aS,5S,8S,10R,20E,23aS)-5-cyclopentyl-N-{(1R,2S)-1-[(cyclopropylsulfonyl)carbamoyl]-2-ethenylcyclopropyl}-1a,14-dimethyl-3,6,17-trioxo-1,1a,3,4,5,6,9,10,19,22,23,23a-dodecahydro-8H,17H-7,10-methano cyclopropa[18,19] [1,10,3,6,12]dioxatriaza cyclononadecino[11,12-b]quinazoline-8-carboxamide] | 0.3 | 82.2 |  |  | 135 |
